For 43 compounds, EC50 results are on record in US12612412B2, “Antiviral heterocyclic compounds” (Enanta Pharmaceuticals, Inc., priority 2021, dated 2026).

One assay concerns genotype A, "Long" strain RSV. Nature of the assay: RSV-A assay (CPE protection in Hep-2 cells, ATPlite readout). As to conditions: human respiratory syncytial virus, RSV-A Long strain, MOI 0.1, CPE protection, read-out: Human RSV-A (“Long”) EC50. In kind it is cell-based, Human respiratory syncytial virus (HRSV). An excerpt:
Hep-2 cells, (originally derived from tumors grown in irradiated-cortisonised weanling rats that had been injected with epidermoid carcinoma tissue from the larynx of a person, but later found to be indistinguishable from HeLa cells by PCR DNA analysis), were used for the culturing of genotype A, “Long” strain RSV. Flasks were inoculated with RSV and viral stocks were collected once cytopathic effect (CPE) was greater than 90%. Viral stocks in 25% sucrose media were snap frozen using liquid nitrogen to increase viral stability. Viral stock titers were quantified by tissue culture infectious dose 50% (TCID50) using 8,000 cells per well and 3-fold viral dilutions across a 96-well plate, cultured for 4 days. Viral stock titers were also quantified by a plaque forming unit assay, as described elsewhere.
Following extensive parameter testing, the final assay is run as follows: Hep-2 cells are seeded into the inner 60 wells of a 96-well plate at 8,000 cells per well in a volume of 50 μL using Growth Media (DMEM without phenol red, 1% L-Glut, 1% Penn/Strep, 1% nonessential amino acids, 10% heat-inactivated FBS). 2-fold serial dilutions of control and test compounds are added to the wells in duplicate in a total volume of 25 μL. Viral stock is then added to the wells at a multiplicity of infection (MOI) of 0.1 in a volume of 25 μL, bringing the total volume of each well to 100 μL. The MOI is calculated using the PFU/mL, or TCID50 if unavailable. Each 96-well plate has a control column of 6 wells with cells and virus but no compound (negative control, max CPE), a column with cells but no compound or virus (positive control, minimum CPE), and a column with no cells or virus or compound (background plate/reagent control). The control wells with cells but no virus are given an additional 25 μL of growth media containing an equal quantity of sucrose as those wells receiving the viral stock in order to keep consistent in media and volume conditions. The outer wells of the plate are filled with 125 μL of moat media (DMEM, 1% Penn/Strep) to act as a thermal and evaporative moat around the test wells. Following a 5-day incubation period, the plates are read using ATPlite (50 uL added per well), which quantifies the amount of ATP (a measure of cell health) present in each well. Assay plates are read using the Envision luminometer. […] EC50 ranges are as follows: A<0.2 μM; B>0.2 μM.
A general note: In ATP-based viability assays light output follows the ATP content of the culture.
Consider `COc1cc(C(=O)NC[C@](O)(c2cc3c(c(-c4ccc5c(c4)OC(F)(F)O5)n2)OC[C@]3(C)C(N)=O)C(F)(F)F)cc2cc(C)nnc12` [Example 1110], for which the EC50 is under 200 nM. `COc1cc(C(=O)NC[C@](O)(c2cc3c(c(C4CCC(F)(F)CC4)n2)OC[C@]3(C)C(N)=O)C(F)(F)F)cc2cn(C3CC3)nc12` [Example 1268]: the EC50 was under 200 nM. Turning to `COc1cc(C(=O)NC[C@](O)(c2cc3c(c(-c4cc(F)c(F)c(F)c4F)n2)OC[C@]3(C)C(N)=O)C2CC2)cc2cn(C3CC3)nc12` [Example 1278], the EC50 was under 200 nM.

For the compound `COc1cc(C(=O)NC[C@](O)(c2cc3c(c(-c4cccc(Cl)c4F)n2)OC[C@]3(C)C(N)=O)C2CC2)cc2cn(C3CC3)nc12` [Example 1283], the EC50 is under 200 nM. Turning to `COc1cc(C(=O)NC[C@@](O)(c2cc3c(c(-c4cccc(Br)c4F)n2)OC[C@]3(C)C(N)=O)C(F)(F)F)cc2cn(C3CC3)nc12` [Example 1224], the EC50 is under 200 nM. For `COc1cc(C(=O)NC[C@](O)(c2cc3c(c(-c4cc(Cl)cc(Cl)c4F)n2)OC[C@]3(C)C(N)=O)C(F)(F)F)cc2cn(C3CC3)nc12` [Example 1258], the EC50 is under 200 nM. On to `COc1cc(C(=O)NC[C@](O)(c2cc3c(c(-c4ccc(F)cc4)n2)OC[C@]3(C)C(N)=O)C2(F)CC2)cc2cc(Br)c(C)nc12` [Example 1118], for which the EC50 was under 200 nM. In the case of `COc1cc(C(=O)NC[C@](O)(c2cc3c(c(-c4ccc(Cl)c(Cl)c4F)n2)OC[C@]3(C)C(N)=O)C(F)(F)F)cc2cn(C3CC3)nc12` [Example 1257], the EC50 is under 200 nM. For `COc1ccc(-c2nc([C@](O)(CNC(=O)c3cc(OC)c4nn(C5CC5)cc4c3)C(F)(F)F)cc3c2OC[C@]3(C)C(N)=O)cc1OC` [Example 905], the EC50 is over 200 nM. On to `COc1cc(C(=O)NCC(O)(c2cc3c(c(-c4cc(F)c(Cl)c(Cl)c4)n2)OC[C@]3(C)C(N)=O)C(F)(F)F)cc2cn(C3CC3)nc12` (stereo partly shown) [Example 1266], for which the EC50 is under 200 nM. Turning to `COc1cc(C(=O)NC[C@@](O)(c2cc3c(c(-c4ccc5c(c4)OC(F)(F)O5)n2)OC[C@]3(C)C(N)=O)C(F)(F)F)cc2cn(C3CC3)nc12` [Example 894], the EC50 is over 200 nM.

In the case of `COc1cc(C(=O)NC[C@](O)(c2cc3c(c(-c4ccc(F)c(Cl)c4)n2)OC[C@]3(C)C(N)=O)C(F)(F)F)cn2nc(C3CC3)cc12` [Example 880], the EC50 is over 200 nM.

Still in this assay, the particulars now being: human respiratory syncytial virus, genotype A “Long” strain RSV, MOI 0.1, CPE protection, read-out: Human RSV-A (“Long”).
As to `C[C@]1(C(N)=O)COc2c1cc([C@@](O)(CNC(=O)c1cnn(-c3ccccc3)c1)C(F)(F)F)nc2-c1ccc(F)cc1` [Example 444], the EC50 is under 200 nM. Still for that read-out and setting: under `C[C@]1(C(N)=O)COc2c1cc([C@@](O)(CNC(=O)c1cc(Br)c3[nH]c(C4CC4)nc3c1)C(F)(F)F)nc2-c1ccc(F)cc1` [Example 204] stands under 200 nM. Take `CC[C@@]1(C(N)=O)COc2c1cc([C@@](O)(CNC(=O)c1ccc(OC[C@@H](C)O)c(OC3CC3)c1)C(F)(F)F)nc2-c1ccc(F)cc1` [Example 251]: the EC50 is over 200 nM.

For `Cn1cc(C(=O)NC[C@](O)(c2cc3c(c(-c4ccc(F)cc4)n2)OC[C@]3(C)C(N)=O)C(F)(F)F)c(-c2ccccc2)n1` [Example 445], the EC50 is over 200 nM. On to `C[C@]1(C(N)=O)COc2c1cc([C@@](O)(CNC(=O)c1cc3cc(F)ccc3s1)C(F)(F)F)nc2-c1ccc(F)cc1` [Example 434], for which the EC50 is over 200 nM. For `COc1ccccc1-c1cc(C(=O)NC[C@](O)(c2cc3c(c(-c4ccc(F)cc4)n2)OC[C@]3(C)C(N)=O)C(F)(F)F)n[nH]1` [Example 207], the EC50 was over 200 nM.

Take `COc1cc(C(=O)NC[C@](O)(c2cc3c(c(-c4ccc(F)cc4)n2)OC[C@]3(C)C(N)=O)C2CC2)cc2cc(Cl)c(C)nc12` [Example 319]: the EC50 was under 200 nM. On to `COc1cc(C(=O)NC[C@](O)(c2cc3c(c(-c4ccc(F)cc4)n2)OC[C@]3(C)C(N)=O)C2CC2)cc2cn(C3CC3)nc12` [Example 302], for which the EC50 is under 200 nM.

Turning to `C[C@]1(C(N)=O)COc2c1cc([C@@](O)(CNC(=O)c1cc3cn[nH]c3cc1C1CC1)C(F)(F)F)nc2-c1ccc(F)cc1` [Example 126], the EC50 is over 200 nM. For the compound `COc1cc(C(=O)NC[C@](O)(c2cc3c(c(-c4ccc(F)cc4)n2)OC[C@]3(C)C(N)=O)C(F)(F)F)nc2cc(C)nn12` [Example 180], the EC50 was over 200 nM. Consider `C[C@]1(C(N)=O)COc2c1cc([C@@](O)(CNC(=O)c1cc(Cl)cc3[nH]ncc13)C(F)(F)F)nc2-c1ccc(F)cc1` [Example 414], for which the EC50 was over 200 nM. The same measure, in the same setting: then `Cc1nn(-c2ccccc2)cc1C(=O)NC[C@](O)(c1cc2c(c(-c3ccc(F)cc3)n1)OC[C@]2(C)C(N)=O)C(F)(F)F` [Example 452], with under 200 nM. Consider `C[C@]1(C(N)=O)COc2c1cc([C@@](O)(CNC(=O)c1nccc3[nH]ccc13)C(F)(F)F)nc2-c1ccc(F)cc1` [Example 388], for which the EC50 was over 200 nM.

For `Cn1c(C(=O)NC[C@](O)(c2cc3c(c(-c4ccc(F)cc4)n2)OC[C@]3(C)C(N)=O)C(F)(F)F)cc2ccccc21` [Example 401], the EC50 was over 200 nM. As for `C[C@]1(C(N)=O)COc2c1cc([C@@](O)(CNC(=O)c1ccn3nc(N)cc3c1)C(F)(F)F)nc2-c1ccc(F)cc1` [Example 87], the EC50 is under 200 nM.

Consider `C[C@]1(C(N)=O)COc2c1cc([C@@](O)(CNC(=O)c1ccc3sccc3c1)C(F)(F)F)nc2-c1ccc(F)cc1` [Example 357], for which the EC50 was over 200 nM. For the compound `CC[C@@]1(C(N)=O)COc2c1cc([C@@](O)(CNC(=O)c1ccc(OC3CC3)c(OC)c1)C(F)(F)F)nc2-c1ccc(F)cc1` [Example 250], the EC50 is over 200 nM. As for `C[C@]1(C(N)=O)COc2c1cc([C@@](O)(CNC(=O)c1ccc(F)c3cc[nH]c13)C(F)(F)F)nc2-c1ccc(F)cc1` [Example 348], the EC50 is under 200 nM. As for `C[C@]1(C(N)=O)COc2c1cc([C@@](O)(CNC(=O)c1cc3[nH]ccc3cc1F)C(F)(F)F)nc2-c1ccc(F)cc1` [Example 387], the EC50 was over 200 nM. As for `C[C@]1(C(N)=O)COc2c1cc([C@@](O)(CNC(=O)c1cc(F)c3nc(C(N)=O)cn3c1)C(F)(F)F)nc2-c1ccc(F)cc1` [Example 79], the EC50 was over 200 nM. `COc1cc(C(=O)NC[C@](O)(c2cc3c(c(-c4ccc(F)cc4)n2)OC[C@]3(C)C(N)=O)C2CC2)cn2cc(C3CC3)nc12` [Example 320]: the EC50 was under 200 nM. As to `C[C@]1(C(N)=O)COc2c1cc([C@@](O)(CNC(=O)c1cc(Br)c3[nH]cnc3c1)C(F)(F)F)nc2-c1ccc(F)cc1` [Example 195], the EC50 was under 200 nM. With `Cc1c(C(=O)NC[C@](O)(c2cc3c(c(-c4ccc(F)cc4)n2)OC[C@]3(C)C(N)=O)C(F)(F)F)cnn1-c1ccccc1` [Example 458], the EC50 was under 200 nM. In the case of `NC(=O)[C@]1(C2CC2)COc2c1cc([C@@](O)(CNC(=O)c1cc(F)c3nc(N)sc3c1)C(F)(F)F)nc2-c1ccc(F)cc1` [Example 262], the EC50 is over 200 nM. On the same count and under the same terms, under `COc1ccc(-n2cc(C(=O)NC[C@](O)(c3cc4c(c(-c5ccc(F)cc5)n3)OC[C@]4(C)C(N)=O)C(F)(F)F)cn2)cc1` [Example 450] stands over 200 nM; under `COc1cc(C(=O)NC[C@@](O)(c2cc3c(c(-c4ccc(F)c(C)c4)n2)OC[C@]3(C)C(N)=O)C(F)(F)F)cc2cn(C3CC3)nc12` [Example 635], over 200 nM. Regarding `Cc1cc(C(=O)NC[C@](O)(c2cc3c(c(-c4ccc(F)cc4)n2)OC[C@]3(C)C(N)=O)C(F)(F)F)cc2cn[nH]c12` [Example 122], the EC50 was under 200 nM. For the compound `COc1cc(C(=O)NC[C@](O)(c2cc3c(c(-c4ccc(F)cc4)n2)OC[C@]3(CCl)C(N)=O)C(F)(F)F)cc2cc(C)c(C)nc12` [Example 233, (S)-3-(chloromethyl)-7-(4-fluorophenyl)-5-((S)-1,1,1-trifluoro-2-hydroxy-3-(8-methoxy-2,3-dimethylquinoline-6-carboxamido)propan-2-yl)-2,3-dihydrofuro[2,3-c]pyridine-3-carboxamide], the EC50 was under 200 nM. On to `COc1cc(C(=O)NC[C@](O)(c2cc3c(c(-c4ccc(F)c(Cl)c4)n2)OC[C@]3(C)C(N)=O)C(F)(F)F)cc2cn(C(F)F)nc12` [Example 46], for which the EC50 is under 200 nM. Still for that read-out and setting: then `C[C@]1(C(N)=O)COc2c1cc([C@@](O)(CNC(=O)c1ccc[nH]1)C(F)(F)F)nc2-c1ccc(F)cc1` [Example 391], with over 200 nM; and `COc1ccc(-c2cc(C(=O)NC[C@](O)(c3cc4c(c(-c5ccc(F)cc5)n3)OC[C@]4(C)C(N)=O)C(F)(F)F)n[nH]2)cc1` [Example 209], with over 200 nM.
